In PMC3403872, “Contrasting effects of linaclotide and lubiprostone on restitution of epithelial cell barrier properties and cellular homeostasis after exposure to cell stressors” (BMC Pharmacology, 2012):
Where no end group is shown, it is not given here.

Assays:
T84 cells [1] = tested on: T84 cells
T84 cells [2] = format: cell-based
occludin = assay: Western analysis of occludin in sucrose density gradient membrane fractions; parameters: species or system Yorkshire crossbred pigs; details: ischemic pig jejunum, n = 3 experiments
pig jejunum [3] = assay: TER of pig jejunal mucosa in Ussing chambers; parameters: species or system Yorkshire crossbred pigs
pig jejunum [4] = assay: mucosal-to-serosal 3H-mannitol flux in pig jejunal mucosa; parameters: species or system Yorkshire crossbred pigs; details: n = 3
pig jejunum [5] = assay: short-circuit current (Cl− secretion) of pig jejunal mucosa in Ussing chambers; parameters: species or system Yorkshire crossbred pigs; details: 1 μM, n = 4
patients with IBS-C = details: ref [21]; cited from earlier work
T84 cells [6] = assay: mitochondrial membrane potential of T84 cells (JC-1); format: cell-based
T84 cells [7] = assay: 3,000 Da FITC-dextran flux across T84 cells; format: cell-based; details: 200 nM active linaclotide, 200 nM guanylin, 100 nM lubiprostone, 3 days, then dextran 24 h, n = 3
T84 cells [8] = format: cell-based; remark: listed apart in the source
porcine intestine = tested on: porcine intestine; parameters: method as in PMID 17053162, PMID 18976652, PMID 18932279; details: porcine intestine models; ref [22]-[24]; cited from earlier work
T84 cells [9] = assay: 70,000 Da rhodamine-dextran flux across T84 cells; format: cell-based; details: 200 nM active linaclotide, 200 nM guanylin, 100 nM lubiprostone, 3 days, then dextran 24 h, n = 3
T84 cells [10] = assay: plasma membrane potential of T84 cells (DiBAC4(3)); format: cell-based; details: different concentrations, p wrt 1 nM drug, n = 5
ClC-2 Cl- channels = tested on: ClC-2 Cl- channels; parameters: method as in PMID 15213059, PMID 18511742; details: apical membrane of epithelial cells; ref [17],[18]; cited from earlier work
[11] = tested on: patients with IBS-C and CIC; details: human, in vivo; cited from earlier work
T84 cells [12] = assay: FITC-LPS flux across T84 cells; format: cell-based; details: IFN-γ 100 ng/ml
[13] = parameters: method as in PMID 16603730; details: ref [19],[20]; cited from earlier work
K+ channels = details: cited from earlier work
[14] = tested on: guanylate cyclase-C (GC-C); details: cited from earlier work
rodent animal models = details: in vivo; cited from earlier work

Nc1nc2c(nc(Br)n2[C@@H]2O[C@@H]3COP(=O)(O)O[C@H]3[C@H]2O)c(=O)[nH]1 [8BrcGMP, 8-bromo cGMP]
effect on T84 TER, no stressor (T84 cells [1]): reduced T84 epithelial cell TER significantly | effects against IFN-γ (T84 cells [1]): effects similar to active linaclotide

CCCCC[C@H](O)/C=C/[C@H]1[C@H](O)CC(=O)[C@@H]1CCCCCCC(=O)O [PGE1, Prostaglandin E1]
effect on [Ca2+]i (T84 cells [2]): significantly increased

CCCCC(F)(F)[C@@]1(O)CC[C@H]2[C@@H](CC(=O)[C@@H]2CCCCCCC(=O)O)O1 [lubiprostone]
effect on occludin after ischemia (occludin): major return of occludin to detergent-insoluble fractions | ΔTER, control intestine (pig jejunum [3]; control pig jejunum, 1000 nM (1 μM), control ΔTER 2.1±1.8, n = 5, p < 0.01, mean ± S.E.): 26.3 ± 6.2 % mean basal | effect on TER after ischemia (pig jejunum [3]; ischemic pig jejunum (45 min ischemia), n = 5): large, significant increase in TER | effect on 3H-mannitol flux, control intestine (pig jejunum [4]; control pig jejunum, 60 min flux period): neither compound had any effect | effect on 3H-mannitol flux after ischemia (pig jejunum [4]; ischemic pig jejunum (45 min ischemia)): decrease in ^3H-mannitol fluxes | effect on Isc, control intestine (pig jejunum [5]): significant and similar increases in Isc | effect on visceral pain thresholds (patients with IBS-C): without influencing visceral pain thresholds | effect on mitochondrial membrane potential, no stressor (T84 cells [6]; 200 nM active linaclotide, 100 nM lubiprostone, 3 days): no effect on the mitochondrial membrane potential | IFN-γ-counteracting effect on mitochondrial membrane potential (T84 cells [6]; IFN-γ 100 ng/ml, 200 nM active linaclotide or 100 nM lubiprostone, 3 days, n = 8): ~77.8% | effect on mucosal to serosal 3,000 Da FITC-dextran flux (T84 cells [7]): decreases of these fluxes | IFN-γ-counteracting effect on occludin/actin ratio (T84 cells [8]): ~43.8% | barrier repair after ischemia (porcine intestine): promotes repair of barrier properties which are disrupted by ischemia | effect on mucosal to serosal 70,000 Da rhodamine-dextran flux (T84 cells [9]): decreases of these fluxes | effect on T84 TER, no stressor (T84 cells [1]): slight increase in TER | effect of compound alone on measured T84 parameters (T84 cells [1]; T84 cells, no stressor, barrier function and mitochondrial membrane potential parameters together): no negative effects on the measured parameters | IFN-γ-counteracting effect on TER (T84 cells [1]; T84 cells, IFN-γ 100 ng/ml, 200 nM active linaclotide or 100 nM lubiprostone, n = 3, Δlin vs Δlubi p < 0.0005): ca. 27.3% | effect on TNF-α-induced TER change (T84 cells [1]; T84 cells, TNF-α 50 ng/ml, 200 nM active linaclotide or 100 nM lubiprostone): partially protected/repaired barrier function | effect on plasma membrane potential (T84 cells [10]): significantly hyperpolarized | ClC-2 activation (ClC-2 Cl- channels): activates ClC-2 Cl^- channels | clinical effect on abdominal discomfort and pain [11]: ameliorates abdominal discomfort and pain | clinical efficacy of lubiprostone (symptoms) [11]: significantly improving symptoms associated with CIC and IBS-C | IFN-γ-counteracting effect on FITC-LPS flux (T84 cells [12]; 200 nM active linaclotide or 100 nM lubiprostone, 3 days, then LPS 24 h, n = 3): ~89% | intestinal secretion and bowel movements [13]: increasing intestinal salt and water secretion, promoting bowel movements

CCC(=O)C(CC(C)N(C)C)(c1ccccc1)c1ccccc1 (stereo not shown) [methadone]
effect of methadone on linaclotide's effect on TER after TNF-α (T84 cells [1]): no effect | effect of methadone on lubiprostone's protection/repair of TER after TNF-α (T84 cells [1]): inhibited completely

guanylin: well established GC-C activator, Sigma-Aldrich (PGTCEICAYAACTGC; ends and bridges not checked; cysteine pairing not given here; UniProt Q02747 101-115, looked up)
effect on mucosal to serosal 3,000 Da FITC-dextran flux (T84 cells [7]): increased mucosal to serosal fluxes | effect on mucosal to serosal 70,000 Da rhodamine-dextran flux (T84 cells [9]): increased mucosal to serosal fluxes | K+ channel activation (K+ channels): activate K^+ channels | GC-C activation [14]: activates guanylate cyclase-C (GC-C) leading to increased [cGMP]i | effect on T84 TER, no stressor (T84 cells [1]): reduced T84 epithelial cell TER significantly | effects against IFN-γ (T84 cells [1]): effects similar to active linaclotide

linaclotide
intestinal fluid secretion, transit and pain (rodent animal models): stimulated intestinal fluid secretion and transit time and reduced pain | GC-C activation [14]: activates guanylate cyclase-C (GC-C) leading to increased [cGMP]i | clinical efficacy of linaclotide [11]: improve bowel symptoms, transit time and abdominal discomfort or pain

uroguanylin: activates guanylate cyclase-C (NDDCELCVNVACTGCL; ends and bridges not checked; cysteine pairing not given here; UniProt Q16661 97-112, looked up)
K+ channel activation (K+ channels): activate K^+ channels | GC-C activation [14]: activates guanylate cyclase-C (GC-C) leading to increased [cGMP]i

B1: Interferon-γ (protein, UniProt P01579 24-161, looked up)
Interferon gamma: QDPYVKEAENLKKYFNAGHSDVADNGTLFLGILKNWKEESDRKIMQSQIVSFYFKLFKNFKDDQSIQKSVETIKEDMNVKFFNSNKKKRDDFEKLTNYSVTDLNVQRKAIHELIQVMAELSPAAKTGKRKRSQMLFRG
stressor effect on mitochondrial membrane potential (T84 cells [6]; IFN-γ 100 ng/ml, p < 0.0005): decreased the mitochondrial membrane potential | stressor effect on occludin/actin ratio (T84 cells [8]; T84 cells, IFN-γ 100 ng/ml, p < 0.0005): decreased the occludin/actin ratio | stressor effect on TER (T84 cells [1]): significantly reduced TER | stressor effect on mucosal to serosal FITC-LPS flux (T84 cells [12]; p < 0.0005): increased mucosal to serosal FITC-LPS flux
